Residues, ends and D or L forms follow the SMILES beside them. No end group written: not given here.
Legend:
[1] = system: hair follicle melanocytes; test: MSH-antagonizing effect: eumelanin production in cultured skin grafts, specimen pre-incubated with grafts before α-MSH (Example 2); format: cell-based, yellow mice (C 57 BL/6J-A'); parameters: key: ±: weak; +: strong; conditions: skin grafts cultured in Ham's F-12 at 37° C. for 2 days; for Eumelanin production, 10^-9 M of α-MSH and 10^-8 M of specimen added: microscope observation at hair follicles
Experimental: (§1) Skin grafts (about 1 mm×1 mm) of yellow mice (C 57 BL/6J-A') (7.5 days after the birth) containing hair follicle melanocytes were cultured in Ham's F-12 culture medium at 37° C. for 2 days. The culture media used were: (i) Ham's F-12 medium containing α-MSH, (ii) that containing both α-MSH and the compound of the present invention, i.e., the compound of the present invention and the skin grafts had been incubated in a Ham's F-12 medium so as to interact the compounds with a receptor on the melanocyte surface of the skin and then the resultant was contacted with α-MSH in a fresh Ham's F-12 medium and (iii) that containing no additive. After completion of the culture followed by fixation with 10% formalin, specimens were prepared by an ordinary method.

[2] = system: pigmented spots (chloasmata or freckles); test: External preparation applied to pigmented spots of patients; format: in vivo, human; conditions: for Fading/relief of pigmented spots versus comparative cream / Skin trouble during or after use of the cream: cream containing 0.001 wt. % of compound; for Fading/relief of pigmented spots versus comparative cream: applied twice a day for two months, eight male and female patients; for Skin trouble during or after use of the cream: twice a day for two months
Text: The cream thus prepared was applied to pigmented spots (chloasmata or freckles) of eight male and female patients twice a day (in the morning and evening) for two months.

[3] = system: hair follicle melanocytes; test: MSH-inhibiting effect: eumelanin production in cultured skin grafts, specimen pre-mixed with α-MSH (Example 10); format: cell-based, yellow mice (C 57 BL/6J-A'); parameters: key: ±: weak; +: strong; conditions: for Eumelanin production, 10^-9 M of α-MSH and 10^-8 M of specimen added: α-MSH and specimen mixed first, then skin grafts added, Ham's F-12, 37° C., 2 days
Experimental: as §1, with “i.e., α-MSH and” for “i.e.,”, “were mixed” for “and the skin grafts had been incubated in a Ham's F-12 medium”, “each other” for “the compounds with a receptor on the melanocyte surface of the skin”, “skin grafts were added thereto,” for “resultant was contacted with α-MSH in a fresh Ham's F-12 medium”

Row | Molecule | Eumelanin production, 10^-9 M of α-MSH and 10^-8 M of specimen added [1] | Skin trouble during or after use of the cream [2] | further results
1 | CSCC[C@H](NC(C)=O)C(=O)N[C@@H](CCC(=O)O)C(=O)N[C@@H](Cc1c[nH]cn1)C(=O)N[C@@H](CO)C(=O)N[C@@H](CCCNC(=N)N)C(=O)N[C@@H](Cc1c[nH]c2ccccc12)C(=O)NCC(=O)N[C@@H](CCCCN)C(N)=O [Compound No. 14, Ac--Met--Glu--His--Ser--Arg--Trp--Gly--Lys--NH2] (Ac-MEHSRWGK-NH2) | ± | – | –
2 | CSCC[C@H](NC(=O)[C@H](CO)NC(=O)[C@H](Cc1ccc(O)cc1)NC(=O)[C@H](CO)NC(C)=O)C(=O)N[C@@H](CCC(=O)O)C(=O)N[C@@H](Cc1c[nH]cn1)C(=O)N[C@@H](CO)C(=O)N[C@@H](CCCNC(=N)N)C(=O)N[C@@H](Cc1c[nH]c2ccccc12)C(=O)NCC(=O)N[C@@H](CCCCN)C(=O)N1CCC[C@H]1C(=O)N[C@H](C(N)=O)C(C)C [Compound No. 40, Ac--Ser--Tyr--Ser--Met--Glu--His--Ser--Arg--Trp--Gly--Lys--Pro--Val--NH2] | ± | no skin trouble was observed | Fading/relief of pigmented spots versus comparative cream [2]: far more faded
3 | CC[C@H](C)[C@H](N)C(=O)N[C@@H](CC(C)C)C(=O)N[C@@H](CC(C)C)C(=O)N[C@@H](C)C(=O)N[C@@H](CS)C(=O)N[C@@H](C)C(=O)N[C@@H](CCCNC(=N)N)C(=O)N[C@H](C(=O)N[C@@H](CO)C(=O)N1CCC[C@H]1C(=O)NCC(=O)N[C@@H](CCCNC(=N)N)C(=O)N[C@@H](CCCNC(=N)N)C(=O)O)[C@@H](C)CC [Compound No. 113, Ile--Leu--Leu--Ala--Cys--Ala--Arg--Ile--Ser--Pro--Gly--Arg--Arg] (H-ILLACARISPGRR-OH) | – | no skin trouble was observed | –
4 | CC[C@H](C)[C@H](NC(C)=O)C(=O)N[C@@H](CC(C)C)C(=O)N[C@@H](CC(C)C)C(=O)N[C@@H](C)C(=O)N[C@@H](CS)C(=O)N[C@@H](C)C(=O)N[C@@H](CCCNC(=N)N)C(=O)N[C@H](C(=O)N[C@@H](CO)C(=O)N1CCC[C@H]1C(=O)NCC(=O)N[C@@H](CCCNC(=N)N)C(=O)N[C@@H](CCCNC(=N)N)C(N)=O)[C@@H](C)CC [Compound No. 116, Ac--Ile--Leu--Leu--Ala--Cys--Ala--Arg--Ile--Ser--Pro--Gly--Arg--Arg--NH2] (Ac-ILLACARISPGRR-NH2) | – | – | Relief of pigmented spots versus comparative milky lotion ([2]; milky lotion containing 0.0001 % of compound, same method as Example 3): relieved the pigmented spots; Eumelanin production, 10^-9 M of α-MSH and 10^-8 M of specimen added [3]: ±
5 | CC[C@H](C)[C@H](NC(=O)[C@H](CC(C)C)NC(=O)[C@H](CC(C)C)NC(=O)[C@H](CC(C)C)NC(=O)[C@H](CCC(N)=O)NC(=O)[C@H](CC(C)C)NC(=O)[C@H](C)NC(=O)[C@H](Cc1c[nH]cn1)NC(=O)[C@@H](N)CC(C)C)C(=O)N[C@@H](CC(C)C)C(=O)N[C@@H](CC(C)C)C(=O)N[C@@H](C)C(=O)N[C@@H](CS)C(=O)N[C@@H](C)C(=O)N[C@@H](CCCNC(=N)N)C(=O)N[C@H](C(=O)N[C@@H](CO)C(=O)N1CCC[C@H]1C(=O)NCC(=O)N[C@@H](CCCNC(=N)N)C(=O)N[C@@H](CCCNC(=N)N)C(=O)O)[C@@H](C)CC [Compound No. 132, Leu--His--Ala--Leu--Gln--Leu--Leu--Leu--Ile--Leu--Leu--Ala--Cys--Ala--Arg--Ile--Ser--Pro--Gly--Arg--Arg] (H-LHALQLLLILLACARISPGRR-OH) | – | no skin trouble was observed | –
6 | CC[C@H](C)[C@H](NC(=O)[C@H](CC(C)C)NC(=O)[C@H](CC(C)C)NC(=O)[C@H](CC(C)C)NC(=O)[C@H](CCC(N)=O)NC(=O)[C@H](CC(C)C)NC(=O)[C@H](C)NC(=O)[C@H](Cc1c[nH]cn1)NC(=O)[C@H](CC(C)C)NC(C)=O)C(=O)N[C@@H](CC(C)C)C(=O)N[C@@H](CC(C)C)C(=O)N[C@@H](C)C(=O)N[C@@H](CS)C(=O)N[C@@H](C)C(=O)N[C@@H](CCCNC(=N)N)C(=O)N[C@H](C(=O)N[C@@H](CO)C(=O)N1CCC[C@H]1C(=O)NCC(=O)N[C@@H](CCCNC(=N)N)C(=O)N[C@@H](CCCNC(=N)N)C(N)=O)[C@@H](C)CC [Compound No. 135, Ac--Leu--His--Ala--Leu--Gln--Leu--Leu--Leu--Ile--Leu--Leu--Ala--Cys--Ala--Arg--Ile--Ser--Pro--Gly--Arg--Arg--NH2] (Ac-LHALQLLLILLACARISPGRR-NH2) | – | – | Eumelanin production, 10^-9 M of α-MSH and 10^-8 M of specimen added [3]: ±
7 | Ac--Cys--Cys--Trp--Arg--Ser--His--Gln--Pro--NH2 (Ac-CCWRSHQP-NH2; cysteine pairing not given here) [compound 74] | ± | – | –
8 | Ac--Cys--His--Cys--Cys--Trp--Arg--Ser--His--Gln--Pro--Ala--Arg--Pro--NH2 (Ac-CHCCWRSHQPARP-NH2; cysteine pairing not given here) [Compound No. 85] | ± | – | Fading/relief of pigmented spots versus comparative cream [2]: relieved the pigmented spots
9 | α-MSH: melanocyte-stimulating hormone (melanotropin), peptide hormone that activates melanocytes; stimulus in the skin graft test (SYSMEHFRWGKPV; ends and bridges not checked; UniProt P01189 138-150, looked up) [reference compound] | – | – | Eumelanin production, 10^-9 M of α-MSH added ([1]; α-MSH alone): +; Eumelanin production, 10^-9 M of α-MSH added ([3]; α-MSH alone, skin grafts cultured in Ham's F-12 at 37° C. for 2 days): +
